Values quoted from earlier work as cited in patent publication US20110111002A1, “TRANSPORT AND DELIVERY OF GLUTATHIONE INTO HUMAN CELLS USING GOLD NANOPARTICLES” (priority 2009, published 2011).

How the values were obtained:
[1] = humans, injectable
[2] = test system: cell type tested; details: irrespective of the cell type tested
[3] = test system: intracellular glutathione concentration; details: versus the three component amino acids (precursors)

SMILES: O=C([O-])CC([S-])C(=O)[O-].[Au+].[Na+].[Na+] (stereo not drawn) [Myochrisine]
- tolerance of high concentrations [1]: excellent tolerance

SMILES: O=C([O-])CC([S-])C(=O)[O-].[Au+].[Na+].[Na+] (stereo not drawn) [Tauredon]
- toxicity [2]: comparatively nontoxic

SMILES: N[C@@H](CCC(=O)N[C@@H](CS)C(=O)NCC(=O)O)C(=O)O [GSH, L-gammaglutamyl-L-cysteinylglycine]
- efficiency in raising the intracellular glutathione concentration compared to the precursors [3]: three times more efficient
